Test results: patent US6410792B1, “Amide derivatives and methods for using the same as selective neuropeptide Y receptor antagonists” (Bayer Corporation, priority 1997, dated 2002)
Like-named read-outs stand apart in the source and are kept apart here.

How the values were obtained:
[1] = target: T1, Y2 receptor (Homo sapiens, UniProt P49146); experiment: Y2 receptor binding assay ([125I]PYY, membrane protein); conditions: [125I]PYY, membrane protein; read-out: hNPY2 IC50
T1 sequence (P49146 1-381): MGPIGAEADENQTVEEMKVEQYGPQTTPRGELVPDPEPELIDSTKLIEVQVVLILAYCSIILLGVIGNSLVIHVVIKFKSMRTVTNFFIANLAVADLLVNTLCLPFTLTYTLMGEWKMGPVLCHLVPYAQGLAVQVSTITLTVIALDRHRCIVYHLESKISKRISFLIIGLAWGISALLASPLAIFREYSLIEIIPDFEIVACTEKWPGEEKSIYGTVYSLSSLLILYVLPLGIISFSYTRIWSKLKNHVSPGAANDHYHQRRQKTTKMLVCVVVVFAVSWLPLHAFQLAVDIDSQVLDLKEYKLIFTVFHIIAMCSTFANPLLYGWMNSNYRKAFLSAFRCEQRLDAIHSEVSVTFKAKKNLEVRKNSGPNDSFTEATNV
Summary of the method: (§1)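 Filtration binding with membrane protein and drug dilution, 2 h at room temperature with mixing, radioactivity counted by gamma or scintillation. Y2: 25 pM [125I]PYY in Krebs-Ringer bicarbonate pH 7.4 with 0.01% BSA, nonspecific by 1 μM NPY. Y4/PP1: 50 pM [125I]hPP in HEPES-buffered saline pH 7.4 with protease inhibitors and 0.3% BSA, nonspecific by 1 μM hPP.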

[2] = target: human Y4/PP1 receptor (Homo sapiens, UniProt P50391); experiment: Human Y4/PP1 receptor binding assay ([125I]human PP, membrane protein)
Summary of the method: as §1

[3] = target: T2, Human NPY5 receptor (Homo sapiens, UniProt Q15761); experiment: Human NPY5 receptor binding assay ([125I]PYY, membrane protein)
T2 sequence (Q15761 1-445): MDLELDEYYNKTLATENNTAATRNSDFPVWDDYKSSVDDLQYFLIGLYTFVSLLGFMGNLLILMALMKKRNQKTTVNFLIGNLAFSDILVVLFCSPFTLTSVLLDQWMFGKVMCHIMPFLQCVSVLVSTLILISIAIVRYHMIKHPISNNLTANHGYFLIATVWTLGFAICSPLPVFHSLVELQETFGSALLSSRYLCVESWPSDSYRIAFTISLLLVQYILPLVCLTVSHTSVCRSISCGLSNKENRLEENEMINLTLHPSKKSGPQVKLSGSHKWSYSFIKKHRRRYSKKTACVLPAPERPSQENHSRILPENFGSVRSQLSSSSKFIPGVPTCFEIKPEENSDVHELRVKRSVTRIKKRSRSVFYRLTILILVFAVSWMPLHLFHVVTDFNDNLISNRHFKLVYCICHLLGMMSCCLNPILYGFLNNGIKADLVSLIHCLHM
Summary of the method: (§2)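 First, membrane protein, drug dilution and 75-100 pM [125I]PYY were combined in pH 7.4 Tris saline buffer containing divalent cations and 0.1% BSA. Next, samples were mixed 2 hours at room temperature. Finally, samples were filtered, washed ice-cold and counted; 1 μM PYY gave nonspecific binding.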

[4] = target: T3, Human NPY1 receptor (Homo sapiens, UniProt P25929); experiment: Human NPY1 receptor binding assay ([125I]PYY, SK-N-MC cells)
T3 construct: host or cells: SK-N-MC cells
T3 sequence (P25929 1-384): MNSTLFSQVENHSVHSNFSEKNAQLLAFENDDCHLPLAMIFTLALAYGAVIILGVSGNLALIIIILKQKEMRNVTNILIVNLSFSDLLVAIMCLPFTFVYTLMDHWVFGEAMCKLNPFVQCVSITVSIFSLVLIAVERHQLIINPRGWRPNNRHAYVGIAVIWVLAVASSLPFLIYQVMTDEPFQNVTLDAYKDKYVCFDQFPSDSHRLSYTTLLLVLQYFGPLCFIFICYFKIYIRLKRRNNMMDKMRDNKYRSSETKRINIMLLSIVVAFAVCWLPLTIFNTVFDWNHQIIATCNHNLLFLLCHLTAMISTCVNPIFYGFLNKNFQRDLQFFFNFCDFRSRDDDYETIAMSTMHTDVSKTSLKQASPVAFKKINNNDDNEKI
Summary of the method: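 Confluent SK-N-MC cells preincubated 30 min at room temperature in serum-free DMEM/25 mM HEPES pH 7.3 with BSA, bacitracin and PMSF, then incubated 3 h at room temperature with compound and ~50 pM [125I]PYY. Nonspecific binding defined with 1 μM NPY; bound radioactivity counted after Triton X-100 lysis.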

[5] = target: T4, Rat NPY5 receptor (Rattus norvegicus, UniProt Q63634); experiment: Rat NPY5 receptor binding assay ([125I]PYY, membrane protein)
T4 sequence (Q63634 1-445): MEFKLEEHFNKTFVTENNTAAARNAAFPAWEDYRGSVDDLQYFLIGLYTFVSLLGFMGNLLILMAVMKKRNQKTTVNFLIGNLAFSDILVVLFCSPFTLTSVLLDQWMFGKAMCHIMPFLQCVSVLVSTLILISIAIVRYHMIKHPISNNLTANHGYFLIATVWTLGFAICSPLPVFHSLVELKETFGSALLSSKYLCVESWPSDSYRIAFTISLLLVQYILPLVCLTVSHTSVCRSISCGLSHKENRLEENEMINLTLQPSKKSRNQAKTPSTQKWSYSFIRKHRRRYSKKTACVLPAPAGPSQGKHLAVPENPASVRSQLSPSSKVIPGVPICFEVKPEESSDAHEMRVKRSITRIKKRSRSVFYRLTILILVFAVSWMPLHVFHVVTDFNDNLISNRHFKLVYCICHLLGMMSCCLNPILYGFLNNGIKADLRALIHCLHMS
Summary of the method: as §2

[6] = target: T4, Rat NPY5 receptor; experiment: Rat NPY5 cyclase assay (in vitro functional assay, forskolin-stimulated adenylate cyclase, cAMP); type: cell-based; conditions: 20 min; 10 μM; percentage of forskolin-stimulated adenylate cyclase; read-out: rNPY5 % FSAC (10 μM)
Summary of the method: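 Cells stably expressing rat NPY5 receptor, in serum-free DMEM with 10 mM HEPES pH 7.4 and 1 mM IBMX, received […] plus compound for 20 min at 37 °C. Reactions were stopped by boiling. cAMP was quantified by radioimmunoassay and expressed as % of forskolin-stimulated adenylate cyclase.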

[7] = [125I]PYY, read-out: hNPY5 IC50
[8] = [125I]human PP, membrane protein, read-out: hNPY4 IC50
[9] = [125I]PYY, SK-N-MC cells, read-out: hNPYI IC50
[10] = [125I]PYY, read-out: rNPY5 IC50

human Y4/PP1 receptor, sequence (P50391 whole entry): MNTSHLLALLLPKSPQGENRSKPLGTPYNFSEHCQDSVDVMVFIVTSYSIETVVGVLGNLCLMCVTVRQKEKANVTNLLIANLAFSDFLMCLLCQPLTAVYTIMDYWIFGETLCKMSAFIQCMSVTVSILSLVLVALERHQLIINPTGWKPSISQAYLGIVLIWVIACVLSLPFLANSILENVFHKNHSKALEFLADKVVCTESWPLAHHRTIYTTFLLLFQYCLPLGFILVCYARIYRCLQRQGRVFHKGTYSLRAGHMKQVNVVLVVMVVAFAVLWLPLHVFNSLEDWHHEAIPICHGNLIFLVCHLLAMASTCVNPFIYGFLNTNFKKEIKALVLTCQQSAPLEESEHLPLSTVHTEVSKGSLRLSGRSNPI

SMILES	IC50 [1] [nM]	IC50 [2] [nM]	IC50 [3, 7] [nM]	IC50 [4] [nM]	melting point [°C]	IC50 ([5]; rNPY5 IC50, [125I]PYY) [nM]	activity at 10 µM [6] [%]	IC50 [2, 8] [nM]	IC50 [4, 9] [nM]	IC50 [5, 10] [nM]	IC50 ([3]; hNPY5 IC50, [125I]PYY) [nM]
CCC(=O)C1(c2ccccc2)CCN(CC(=O)Nc2ccc(C3CCCCC3)cc2)CC1.Cl [Compound 303, N-(4-Cyclohexyl-phenyl)-2-(4-phenyl-4-propionyl-piperidin-1-yl)-acetamide; hydrochloride]	> 5000	> 5000	4	> 5000	252	6	93				
O=C(CN1CCC(n2c(=O)[nH]c3ccccc32)CC1)Nc1ccc(-c2ccc(F)cc2)cc1 [Compound 259, N-(4′-Fluoro-biphenyl-4-yl)-2-[4-(2-oxo-2,3-dihydro-benzoimidazol-1-yl)-piperidin-1-yl]-acetamide]	> 5000		150		228 to 229		101	> 5000	> 5000	87	
CCNC1(C(N)=O)CCN(CC(=O)Nc2ccc(C3CCCCC3)cc2)CC1.O=C(O)C(=O)O [Compound 302, 1-[(4-Cyclohexyl-phenylcarbamoyl)-methyl]-4-ethylamino-piperidine-4-carboxylic acid amide; compound with oxalic acid]	> 5000		6		184		107	> 5000	> 5000	6	
CC(=O)NCC1(c2ccccc2)CCN(CC(=O)Nc2ccc(C3CCCCC3)cc2)CC1.O=C(O)C(=O)O [Compound 301, 2-[4-(Acetylamino-methyl)-4-phenyl-piperidin-1-yl]-N-(4-cyclohexyl-phenyl)-acetamide; compound with oxalic acid]	> 5000				146	32	101	> 5000	> 5000		32
